Several values for one entry are separate records, joined by “and”; a condition that tells them apart may be missing. Identical values can stand only once.
Legend:
NASH mouse model = NASH mouse model (STZ + HFD): liver inflammation and fibrosis histology; type: in vivo; conditions: NASH mice; for reduction of liver inflammation (inflammation score) vs vehicle: VB-201 4 mg/kg or telmisartan 10 mg/kg once daily for three weeks
Description: Neonatal male mice exposed to low-dose streptozotocin (STZ) develop liver steatosis with diabetes. Continuous high fat diet (HFD) increases lobular inflammation with foam cell-like macrophages, showing nonalcoholic steatohepatitis (NASH) pathology. NASH was induced in 40 male mice by a single subcutaneous injection of 200 μg per mouse of STZ two days after birth and feeding HFD [57 kcal % fat]) from four weeks of age. Vehicle, VB-201 (4 mg/kg), or telmisartan (10 mg/kg) as positive control, were administered once daily for three weeks, starting from six weeks of age. Mice were sacrificed at nine weeks of age.
Liver pathology was used to determine the effect of VB-201 on liver inflammation and fibrosis. Histology slides were stained with hematoxylin/eosin (H&E) to assess inflammation. The inflammation score was determined as follows:
Histology slides were stained with Sirius red to determine collagen content as a marker for the extent of fibrosis.

nephrectomized rats [1] = experiment: 5/6 nephrectomy rat model: glomerular damage and sclerosis (PAS); type: in vivo, Sprague Dawley (SD) Rats; conditions: for Glomerular sclerosis, Global % (Mean ± S.E) / Glomerular sclerosis, Global & Segmental % (Mean ± S.E) / Glomerular sclerosis, Segmental % (Mean ± S.E): Nx rats, VB-201 4 mg/kg or telmisartan 10 mg/kg, 8 weeks; for reduction of damaged glomeruli vs Nx PBS 0.5% Eth / reduction of sclerotic glomeruli vs Nx PBS 0.5% Eth: VB-201 4 mg/kg or telmisartan 10 mg/kg oral, 7 weeks, evaluated at 8 weeks
Description: Male Sprague Dawley (SD) Rats (Harlan Laboratories, Israel) with an initial weight of 200 g were housed 2-3 per cage in IVC cages in dedicated HVAC (heat, ventilation, air conditioning) animal facility. The facility had no exposure to outside light and was maintained on automatic alternating cycles of 12 hours of light and 12 hours of dark. Animals were provided with a commercial rodent diet (Harlan Teklad TRM Rat/Mouse Diet) ad libitum and allowed free access to autoclaved water, supplied to each cage via polysulphone bottles with stainless steel sipper tubes. All animal work was approved by the Animal Care and Use Committee of Israel (IL-13-03-027).
(§1) Rats were divided into three groups: (1) Healthy rats (n=3) in group A, (2) Sham group—subjected to chirurgical process but without kidney mass reduction (n=3) in group B, and (3) the rest were induced with chronic renal failure (n=24). Chronic renal failure was induced by a two stage (5/6) nephrectomy (Nx), with subtraction firstly of about ⅔ of the left kidney by left flank incision and, one week later, complete removal of the right kidney. General anesthesia consisted of intraperitoneal injection of ketamine 100 mg/kg and xylazine 20 mg/kg (0.85 ml ketamine+0.15 ml xylazine for each ml preparation; 1 μl/g BW was injected I.P).
One week following the second surgery, rats were randomly assigned to the following experimental groups:
Nephrectomized, orally administered with VB-201 4 mg/kg (n=8); and
Nephrectomized, orally administered with telmisartan 10 mg/kg as positive control (n=8).
(§2) Body weight (BW) was monitored throughout the study and rats were treated by oral gavage according to their body weight for 7 weeks. Rats were sacrificed by CO2 inhalation 8 weeks from removal of the right kidney (2nd surgery).
Upon sacrifice, at 8 weeks, kidneys were collected, weighed and fixed in 4% formaldehyde.
For light microscopy, paraffin-embedded tissue slides of 4 μm were stained with Periodic Acid-Schiff (PAS) reagent.
Glomerulosclerosis was assessed by PAS-stained sections using a semiquantitative scoring system. The extent of glomerulosclerosis was evaluated by examining mostly 100 randomly selected glomeruli at a magnification of ×400 and applying a score system according to the percentage of sclerosed glomerular area. The score was graded from 0 to 4: (0=0% area; 1=1-25%; 2=26-50%, 3=51-75%, 4=76% and above). The mean of all scored glomeruli was presented. Moreover, the extent of global and segmental glomerulosclerosis was evaluated in the same glomeruli, where <80% sclerosis was referred to as segmental and >80% was referred to as global.
The glomerular area of mostly 100 randomly selected glomeruli at a magnification of ×100 was quantitated by counting squares covered by glomeruli area using a grid and the mean glomeruli area was calculated.
Glomeruli were evaluated for their fibrosis extent by scoring and by calculation of the percent of glomeruli having segmental sclerosis, global sclerosis and the sum of global and segmental sclerotic glomeruli. Moreover, the area of the glomeruli was calculated and the percent of hypertrophied glomeruli was calculated. Damaged glomeruli included hypertrophied (at least ×1.5 from normal area) and or sclerotic glomeruli.

nephrectomized rats [2] = experiment: 5/6 nephrectomy rat model: ED-1/CD68+ monocyte/macrophage infiltration, immunohistochemistry; type: in vivo, Sprague Dawley (SD) Rats; conditions: VB-201 4 mg/kg or telmisartan 10 mg/kg, 8 weeks after surgery; for ED-1/CD68+ Glomerular monocytes/macrophages (Mean ± S.E) / ED-1/CD68+ Interstitial monocytes/macrophages (Mean ± S.E): Nx rats
From the text: as §1, §2
Renal tissues were fixed in 4% formaldehyde and embedded in paraffin. The paraffin-embedded tissues were then cut to form tissue slides of 4 μm. Immunohistochemistry of the paraffin-embedded tissue slides was analyzed using antibodies in the following concentration: monoclonal mouse anti rat CD-68 (ED-1, Serotec MCA341) 1:25. For quantitation of interstitial CD68+ staining, the number of positive cells was counted in 20 randomly selected non-overlapping fields per animal, and the mean value was presented.

Collagen IV = experiment: 5/6 nephrectomy rat model: kidney Collagen IV mRNA, real-time PCR; type: in vivo, Sprague Dawley (SD) Rats; conditions: kidney of Nx rats, 8 weeks; for reduction of Collagen IV mRNA expression vs Nx PBS 0.5% Eth: VB-201 4 mg/kg or telmisartan 10 mg/kg; for Collagen IV relative mRNA expression (mean ± SEM): normalized to TBP, relative to Sham PBS 0.5% Eth
From the text: as §1, §2
(§3) Kidney RNA was extracted with an RNeasy Fibrous Tissue Mini kit (Qiagen) and after DNAse I treatment, single-stranded cDNA was synthesized from 2 μg total RNA using the qScript cDNA Synthesis Kit (Quanta Biosciences) and diluted for real-time PCR. The expression of collagen 4a, fibronectin and TGFβ was quantified using the 7300 Real Time PCR System (Applied Biosystems). The assay was performed according to manufacturer instructions using the primers (Assay ID) represented at the table below supplied by Applied Biosystems. Data were normalized to the reference gene TATA-box Binding Protein (TBP) and presented as relative mRNA levels compared with Sham PBS 0.5% Eth treatment (Table 1).

TGF-β = experiment: 5/6 nephrectomy rat model: kidney TGF-β mRNA, real-time PCR; type: in vivo, Sprague Dawley (SD) Rats; conditions: kidney of Nx rats, 8 weeks; for reduction of TGF-β mRNA expression vs Nx PBS 0.5% Eth: VB-201 4 mg/kg or telmisartan 10 mg/kg; for TGF-β relative mRNA expression (mean ± SEM): normalized to TBP, relative to Sham PBS 0.5% Eth
From the text: as §1, §2, §3

CCCc1nc2c(C)cc(-c3nc4ccccc4n3C)cc2n1Cc1ccc(-c2ccccc2C(=O)O)cc1 [telmisartan, reference compound]
reduction of liver inflammation (inflammation score) vs vehicle (NASH mouse model): 77%
Glomerular sclerosis, Global % (Mean ± S.E) (nephrectomized rats [1]): 1.9 ± 1.60%
Glomerular sclerosis, Global & Segmental % (Mean ± S.E) (nephrectomized rats [1]): 21.0 ± 5.45%
Glomerular sclerosis, Segmental % (Mean ± S.E) (nephrectomized rats [1]): 19.1 ± 4.30%
reduction of damaged glomeruli vs Nx PBS 0.5% Eth (nephrectomized rats [1]): 31%
reduction of sclerotic glomeruli vs Nx PBS 0.5% Eth (nephrectomized rats [1]): 57%
ED-1/CD68+ Glomerular monocytes/macrophages (Mean ± S.E) (nephrectomized rats [2]): 3.185±0.427 Cells/Glomeruli and 3.185 Cells/Glomeruli
ED-1/CD68+ Interstitial monocytes/macrophages (Mean ± S.E) (nephrectomized rats [2]): 421.0±61.77 Cells/mm^2 and 421.0 Cells/mm^2
reduction of number of glomerular monocytes/macrophages vs Nx PBS 0.5% Eth (nephrectomized rats [2]): 13%
reduction of number of interstitial monocytes/macrophages vs Nx PBS 0.5% Eth (nephrectomized rats [2]): 20%
reduction of Collagen IV mRNA expression vs Nx PBS 0.5% Eth (Collagen IV): 41%
Collagen IV relative mRNA expression (mean ± SEM) (Collagen IV): 4.4±0.23
reduction of TGF-β mRNA expression vs Nx PBS 0.5% Eth (TGF-β): 44%
TGF-β relative mRNA expression (mean ± SEM) (TGF-β): 4.7±0.52

CCCCCCCCCCCCCCCCOCC(COP(=O)([O-])OCC[N+](C)(C)C)OCCCCC(=O)O (centres unmarked) [VB-201, 1-hexadecyl-2-(4′-carboxybutyl)-glycero-3-phosphocholine]
decrease of extent of liver fibrosis (Sirius red fibrosis area) vs vehicle (NASH mouse model; VB-201 4 mg/kg once daily for three weeks): about 34%
reduction of liver inflammation (inflammation score) vs vehicle (NASH mouse model): 65%
Glomerular sclerosis, Global % (Mean ± S.E) (nephrectomized rats [1]): 5.4 ± 3.22%
Glomerular sclerosis, Global & Segmental % (Mean ± S.E) (nephrectomized rats [1]): 31.8 ± 4.92%
Glomerular sclerosis, Segmental % (Mean ± S.E) (nephrectomized rats [1]): 26.5 ± 4.39%
reduction of damaged glomeruli vs Nx PBS 0.5% Eth (nephrectomized rats [1]): 29%
reduction of sclerotic glomeruli vs Nx PBS 0.5% Eth (nephrectomized rats [1]): 34%
ED-1/CD68+ Glomerular monocytes/macrophages (Mean ± S.E) (nephrectomized rats [2]): 2.113±0.374 Cells/Glomeruli and 2.113 Cells/Glomeruli
ED-1/CD68+ Interstitial monocytes/macrophages (Mean ± S.E) (nephrectomized rats [2]): 269.25±25.41 Cells/mm^2 and 269.3 Cells/mm^2
reduction of number of glomerular monocytes/macrophages vs Nx PBS 0.5% Eth (nephrectomized rats [2]): 42%
reduction of number of interstitial monocytes/macrophages vs Nx PBS 0.5% Eth (nephrectomized rats [2]): 49%
reduction of Collagen IV mRNA expression vs Nx PBS 0.5% Eth (Collagen IV): 42%
Collagen IV relative mRNA expression (mean ± SEM) (Collagen IV): 4.3±0.33
reduction of TGF-β mRNA expression vs Nx PBS 0.5% Eth (TGF-β): 37%
TGF-β relative mRNA expression (mean ± SEM) (TGF-β): 5.3±0.33
